Structures can show the parent of a compound that is named as a salt.
test: in vitro; conditions: rat, gh3-tre-luc cells, AC50 (uM) modified / 1000

`CC(C)[C@H](N)C(=O)OCCOCn1cnc2c(=O)[nH]c(N)nc21` [Valacyclovir hydrochloride] and `Nc1nc2c(ncn2CCC(CO)CO)c(=O)[nH]1` [Penciclovir] cannot be ordered by CC50 at 24 h: greater than 50 µM for the first, greater than 50 µM for the second.

`Cc1cc(C)n(CO)n1` [(3,5-Dimethyl-1H-pyrazol-1-yl)methanol] and `Cc1cn[nH]c1` [4-Methylpyrazole hydrochloride] cannot be ordered by CC50 at 24 h: greater than 90 µM for the first, greater than 50 µM for the second.

`CC(CCO)CC(C)(C)C` (stereo not shown) [3,5,5-Trimethyl-1-hexanol] and `CC(C)(C)N(CCO)CCO` [2,2'-(tert-Butylimino)diethanol] cannot be ordered by CC50 at 24 h: greater than 90 µM for the first, greater than 90 µM for the second.

Going from `CCOC(=O)c1cc(-c2ccccc2)nc2ccc(C)cc12` [Neocinchophen] to `O=C(O)c1cccc(Oc2ccccc2)c1` [3-Phenoxybenzoic acid], the CC50 at 24 h rises from 44.6 µM to greater than 90 µM.

`CCC(CO)(CO)[N+](=O)[O-]` [2-Ethyl-2-nitro-1,3-propanediol] and `CCC(C)(CCCC(C)C)OC(C)=O` (stereo not shown) [3,7-Dimethyloctan-3-yl acetate] cannot be ordered by CC50 at 24 h: greater than 90 µM for the first, greater than 90 µM for the second.

`O=C(c1ccccc1)c1ccccc1O` [2-Hydroxybenzophenone] and `O=C(OCCc1ccccc1)c1ccccc1` [2-Phenylethyl benzoate] cannot be ordered by CC50 at 24 h: greater than 90 µM for the first, greater than 90 µM for the second.

`Cc1ccsc1C(=CCCN1CCC[C@@H](C(=O)O)C1)c1sccc1C` [Tiagabine hydrochloride] and `Cc1ccccc1N1CCN(CCc2nnc3n2CCCC3)CC1` [Dapiprazole hydrochloride] cannot be ordered by CC50 at 24 h: greater than 50 µM for the first, greater than 50 µM for the second.

First: NCc1cccc(C2CCN(C(=O)c3ccc(C#Cc4ccccc4F)o3)CC2)c1 [AVE5638]
Second: O=C1c2ccccc2C(=O)C1c1ccccc1 [Phenindione]
The CC50 at 24 h of the first is lower: 6.44 µM for the first, greater than 20 µM for the second.

`OCCN(CCO)c1cccc(Cl)c1` [2,2'-(3-Chlorophenylimino)diethanol] and `OCCNCc1ccccc1` [N-Benzylethanolamine] cannot be ordered by CC50 at 24 h: greater than 90 µM for the first, greater than 90 µM for the second.

Compared with `Oc1ccc2c(c1)-c1ccccc1C2` [3-Hydroxyfluorene], `CN1CCN(C2=Nc3ccccc3Oc3ccc(Cl)cc32)CC1` [Loxapine succinate] is lower in CC50 at 24 h: greater than 90 µM for the first, 7.25 µM for the second.

`C=CS(=O)(=O)O` [Sodium ethenesulfonate] and `CC1=NN(c2ccc(S(=O)(=O)O)cc2)C(=O)C1` [4-(3-Methyl-5-oxo-4,5-dihydro-1H-pyrazol-1-yl)benzenesulfonic acid] cannot be ordered by CC50 at 24 h: greater than 50 µM for the first, greater than 90 µM for the second.

`O=C(O)c1ccc(OCCCOc2ccc(C(=O)O)cc2)cc1` [1,3-Bis(4-carboxyphenoxy)propane] and `c1ccc(CNCc2ccccc2)cc1` [Dibenzylamine] cannot be ordered by CC50 at 24 h: greater than 50 µM for the first, greater than 90 µM for the second.

`CCCCCCCCCCCCc1ccccc1` [Dodecylbenzene] and `CCCCCCCCCCCCCCCC(=O)OC(C)C` [Hexadecanoic acid, 1-methylethyl ester] cannot be ordered by CC50 at 24 h: greater than 90 µM for the first, greater than 50 µM for the second.

`C=CC(C)(CCC=C(C)C)OC(C)=O` (stereo not shown) [Linalyl acetate] and `COC(=O)CC(=O)C(C)(C)C` [Methyl pivaloylacetate] cannot be ordered by CC50 at 24 h: greater than 90 µM for the first, greater than 90 µM for the second.

Compared with `CCCCC(CC)CNC(=N)NC(=N)NCCCCCCNC(=N)NC(=N)NCC(CC)CCCC` (stereo not shown) [Alexidine dihydrochloride], `CC(C)CCCCCCOC(=O)CCCCC(=O)OCCCCCCC(C)C` [Hexanedioic acid, diisononyl ester] is higher in CC50 at 24 h: 7.36 µM for the first, greater than 90 µM for the second.

First: COc1cnc(OC)n2nc(NS(=O)(=O)c3c(OCC(F)F)cccc3C(F)(F)F)nc12 [Penoxsulam]
Second: CCOCn1c(-c2ccc(Cl)cc2)c(C#N)c(Br)c1C(F)(F)F [Chlorfenapyr]
The CC50 at 24 h of the first is higher: greater than 90 µM for the first, 2.15 µM for the second.

`COC(=O)NN` [Methyl carbazate] and `COC(=O)c1sccc1S(=O)(=O)NC(=O)Nc1nc(C)nc(OC)n1` [Thifensulfuron-methyl] cannot be ordered by CC50 at 24 h: greater than 90 µM for the first, greater than 90 µM for the second.

Compared with `COc1ccc2c(c1)N(C[C@H](C)CN(C)C)c1ccccc1S2` [Methotrimeprazine maleate], `CCN(CC)CCCC(C)Nc1c2ccc(Cl)cc2nc2ccc(OC)cc12` (stereo not shown) [Quinacrine dihydrochloride dihydrate] is higher in CC50 at 24 h: 6.79 µM for the first, greater than 50 µM for the second.

`CC(C)(C)CC(C)(C)c1cc(Cc2cc(C(C)(C)CC(C)(C)C)cc(-n3nc4ccccc4n3)c2O)c(O)c(-n2nc3ccccc3n2)c1` [Bisoctrizole] and `O=C(O)C(Cc1cc(I)c(O)c(I)c1)c1ccccc1` (stereo not shown) [Iodoalphionic acid] cannot be ordered by CC50 at 24 h: greater than 50 µM for the first, greater than 50 µM for the second.

`O=Cc1cc2ccccc2o1` [2-Benzofurancarboxaldehyde] and `Cc1c(N)c(=O)n(-c2ccccc2)n1C` [Ampyrone] cannot be ordered by CC50 at 24 h: greater than 90 µM for the first, greater than 20 µM for the second.

`O=C1CCCCCN1SSN1CCCCCC1=O` [1,1'-Disulfanediyldiazepan-2-one] and `N=C(N)/N=C(\N)N1CCOCC1` [Moroxidine hydrochloride] cannot be ordered by CC50 at 24 h: 53.9 µM for the first, greater than 20 µM for the second.

`Cc1c(O)cc2c(c1C)O[C@](C)(CCC[C@H](C)CCC[C@H](C)CCCC(C)C)CC2` [(+)-gamma-Tocopherol] and `CN(C)Cc1cc(CN(C)C)c(O)c(CN(C)C)c1` [2,4,6-Tris(dimethylaminomethyl)phenol] cannot be ordered by CC50 at 24 h: greater than 50 µM for the first, greater than 90 µM for the second.

`c1ccsc1` [Thiophene] and `COc1cccc(Br)c1` [1-Bromo-3-methoxybenzene] cannot be ordered by CC50 at 24 h: greater than 90 µM for the first, greater than 90 µM for the second.

`OC[C@H](Cc1cccc(O)c1)[C@H](CO)Cc1cccc(O)c1` [(-)-Enterodiol] and `Nc1cccc(S(=O)(=O)c2cccc(N)c2)c1` [3,3'-Sulphonyldianiline] cannot be ordered by CC50 at 24 h: greater than 90 µM for the first, greater than 90 µM for the second.

`Nc1nc(N)nc(NC2CC2)n1` [Cyromazine] and `Nc1c(Br)cc(Br)cc1CN[C@H]1CC[C@H](O)CC1` [Ambroxolhydrochloride] cannot be ordered by CC50 at 24 h: greater than 90 µM for the first, greater than 50 µM for the second.

`CN(C)c1ccc(C=O)cc1` [4-Dimethylaminobenzaldehyde] and `Cc1ccc(C=O)s1` [5-Methyl-2-thiophenecarboxaldehyde] cannot be ordered by CC50 at 24 h: greater than 90 µM for the first, greater than 90 µM for the second.

`c1ccc(-c2ccccn2)nc1` [2,2'-Bipyridine] and `CCCCC(O)c1ccccc1` (stereo not shown) [Fenipentol] cannot be ordered by CC50 at 24 h: greater than 90 µM for the first, greater than 50 µM for the second.

`CC(C)OC(=O)c1ccccc1C(=O)OC(C)C` [Diisopropyl phthalate] and `CC(C)(CO)[C@@H](O)C(=O)NCCCC(=O)O` [Calcium hopantenate] cannot be ordered by CC50 at 24 h: greater than 90 µM for the first, greater than 50 µM for the second.

`CCOC(=S)SSC(=S)OCC` [Bis(ethylxanthogen)] and `CN(C)CCCCl` [Dimethylaminopropyl chloride hydrochloride] cannot be ordered by CC50 at 24 h: greater than 90 µM for the first, greater than 100 µM for the second.

`O=C(O)CN(CC(=O)O)CC(=O)O` [Nitrilotriacetic acid] and `Nc1ccc(Cl)c(Cl)c1` [3,4-Dichloroaniline] cannot be ordered by CC50 at 24 h: greater than 90 µM for the first, greater than 90 µM for the second.

For `S=C=Nc1ccc(N=C=S)cc1` [Bitoscanate], the CC50 at 24 h was greater than 50 µM.

same assay, conditions: rat, gh3-tre-luc cells, AC50 (uM) modified / 1000, Tox21_110001=Tox21_110431; viability, 1 nM T3 present, 24 h

Compound `C[C@H](N)[C@H](O)c1ccccc1` [Phenylpropanolamine hydrochloride] has a CC50 at 24 h greater than 20 µM.

same assay, conditions: rat, gh3-tre-luc cells, AC50 (uM) modified / 1000, Tox21_110001=Tox21_200362; viability, 1 nM T3 present, 24 h

`CC(Cl)CCl` (stereo not shown) [1,2-Dichloropropane] gave a CC50 at 24 h greater than 90 µM.

same assay, conditions: rat, gh3-tre-luc cells, AC50 (uM) modified / 1000, Tox21_110001=Tox21_202076; viability, 1 nM T3 present, 24 h

`C=CC#N` [Acrylonitrile] showed a CC50 at 24 h greater than 100 µM.

same assay, conditions: rat, gh3-tre-luc cells, AC50 (uM) modified / 1000, Tox21_110001=Tox21_202336; viability, 1 nM T3 present, 24 h

`CCCCN(CCCC)SN(C)C(=O)Oc1cccc2c1OC(C)(C)C2` [Carbosulfan] showed a CC50 at 24 h greater than 90 µM.

same assay, conditions: rat, gh3-tre-luc cells, AC50 (uM) modified / 1000, Tox21_110001=Tox21_300473; viability, 1 nM T3 present, 24 h

Compound `CCCCN(CCCC)SN(C)C(=O)Oc1cccc2c1OC(C)(C)C2` [Carbosulfan] has a CC50 at 24 h of 24.2 µM.

same assay, conditions: rat, gh3-tre-luc cells, AC50 (uM) modified / 1000, Tox21_110001=Tox21_300863; viability, 1 nM T3 present, 24 h

With `CCNP(=S)(OC)O/C(C)=C/C(=O)OC(C)C` (stereo not shown) [Propetamphos] the CC50 at 24 h was greater than 90 µM.

same assay, conditions: rat, gh3-tre-luc cells, AC50 (uM) modified / 1000, Tox21_110001=Tox21_301854; viability, 1 nM T3 present, 24 h

For `CCOC(=O)Nc1cccc(OC(=O)Nc2ccccc2)c1` [Desmedipham], the CC50 at 24 h was greater than 90 µM.

same assay, conditions: rat, gh3-tre-luc cells, AC50 (uM) modified / 1000, Tox21_110001=Tox21_302015; viability, 1 nM T3 present, 24 h

`CCCCNP(N)(N)=S` [N-Butylphosphorothioic triamide] showed a CC50 at 24 h greater than 90 µM.

same assay, conditions: rat, gh3-tre-luc cells, AC50 (uM) modified / 1000, Tox21_110001=Tox21_302951; viability, 1 nM T3 present, 24 h

Work on `C=CC#N` [Acrylonitrile] yielded a CC50 at 24 h greater than 90 µM.
